Experiment [1] is described as follows: Antioxidant activity assessed as DPPH radical scavenging activity measured at 30 to 60 mins by UV-Visible spectrophotometric method. Format: functional.
For experiment [2], the target named is T1, Prostaglandin G/H synthase 1 (Ovis aries) (UniProt P05979).
T1 sequence (whole entry): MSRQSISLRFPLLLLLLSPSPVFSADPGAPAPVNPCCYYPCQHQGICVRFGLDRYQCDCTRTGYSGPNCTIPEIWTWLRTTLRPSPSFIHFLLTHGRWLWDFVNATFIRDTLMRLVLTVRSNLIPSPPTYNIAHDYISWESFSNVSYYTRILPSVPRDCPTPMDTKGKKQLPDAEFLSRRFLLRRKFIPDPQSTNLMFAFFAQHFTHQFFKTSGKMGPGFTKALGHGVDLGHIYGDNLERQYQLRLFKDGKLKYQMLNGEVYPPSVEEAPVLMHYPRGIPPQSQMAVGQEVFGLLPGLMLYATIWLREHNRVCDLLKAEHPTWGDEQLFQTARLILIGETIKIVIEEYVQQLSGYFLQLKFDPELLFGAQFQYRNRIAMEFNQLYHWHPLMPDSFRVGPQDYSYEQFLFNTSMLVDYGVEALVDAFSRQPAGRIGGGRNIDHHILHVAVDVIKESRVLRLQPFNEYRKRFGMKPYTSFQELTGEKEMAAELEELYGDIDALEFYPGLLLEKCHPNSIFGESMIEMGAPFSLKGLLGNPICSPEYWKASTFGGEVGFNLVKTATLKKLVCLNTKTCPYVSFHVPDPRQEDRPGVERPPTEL
Kind of experiment: Inhibition of ovine COX1 at 50 uM using arachidonic acid as substrate by ELISA.

The target of experiment [3] is T2, Prostaglandin G/H synthase 2 (Homo sapiens) (UniProt P35354).
T2 sequence (whole entry): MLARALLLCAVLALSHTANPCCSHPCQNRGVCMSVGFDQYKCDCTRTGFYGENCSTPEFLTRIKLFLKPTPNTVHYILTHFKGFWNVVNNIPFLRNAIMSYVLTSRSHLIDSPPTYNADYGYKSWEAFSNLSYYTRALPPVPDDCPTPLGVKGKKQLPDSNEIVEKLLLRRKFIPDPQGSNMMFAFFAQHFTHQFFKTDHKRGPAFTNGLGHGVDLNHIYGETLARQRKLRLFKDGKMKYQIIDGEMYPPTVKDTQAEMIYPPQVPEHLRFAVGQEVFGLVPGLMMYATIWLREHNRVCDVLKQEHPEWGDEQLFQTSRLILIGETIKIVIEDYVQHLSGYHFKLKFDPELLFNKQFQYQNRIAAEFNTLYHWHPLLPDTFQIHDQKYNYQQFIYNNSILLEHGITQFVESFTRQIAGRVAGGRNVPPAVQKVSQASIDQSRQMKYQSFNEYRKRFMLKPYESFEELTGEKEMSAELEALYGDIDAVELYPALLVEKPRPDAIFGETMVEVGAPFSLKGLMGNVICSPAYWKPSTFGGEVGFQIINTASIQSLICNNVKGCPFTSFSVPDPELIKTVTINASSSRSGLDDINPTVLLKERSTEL
Kind of experiment: Inhibition of recombinant human COX2 at 50 uM using arachidonic acid as substrate by ELISA.

The test system of the next experiment is Liver. The experiment is described as follows: Antioxidant activity in heat-inactivated Fischer-344 rat hepatic microsomes assessed as protection against Fe2+/ascorbate-induced lipid peroxidation after 45 mins by TBAR-based spectrophotometry. It counts as functional, microsome. Conditions: Fischer-344, Liver, 0.75 h.
The target of the next experiment is T3, Squalene synthase (Rattus norvegicus, UniProt Q02769).
T3 sequence (Q02769 whole entry): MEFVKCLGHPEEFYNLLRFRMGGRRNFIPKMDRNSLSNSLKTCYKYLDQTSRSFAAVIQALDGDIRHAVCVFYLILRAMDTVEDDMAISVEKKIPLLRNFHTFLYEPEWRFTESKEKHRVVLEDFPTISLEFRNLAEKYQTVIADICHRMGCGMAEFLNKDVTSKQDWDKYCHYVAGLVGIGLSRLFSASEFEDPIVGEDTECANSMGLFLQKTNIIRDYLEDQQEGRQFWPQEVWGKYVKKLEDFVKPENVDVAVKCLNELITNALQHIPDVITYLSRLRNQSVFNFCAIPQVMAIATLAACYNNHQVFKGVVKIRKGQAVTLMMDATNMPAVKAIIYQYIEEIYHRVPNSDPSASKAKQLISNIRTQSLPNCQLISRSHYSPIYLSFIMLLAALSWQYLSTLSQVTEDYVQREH
Kind of experiment: Inhibition of SQS in rat microsomes using [3H]-FPP as substrate preincubated for 10 mins followed by substrate addition measured after 30 mins by scintillation counting.

Experiment [4] relates to Mus musculus. The experiment is described as follows: Antihyperlipidemic activity in HDF/STZ-induced obesity-diabetes type 2 SKH-2 mouse model assessed as increase in plasma HDL/LDL ratio at 56 umol/kg, ip administered twice daily measured on day 22 and day 53 relative to untreated control. Format: functional.
Experiment [5] deals with Mus musculus. The experiment is described as follows: Antihyperlipidemic activity in HDF/STZ-induced obesity-diabetes type 2 SKH-2 mouse model assessed as decrease in plasma triglyceride levels at 56 umol/kg, ip administered twice daily measured on day 22 and day 53 relative to untreated control. Format: functional.
The subject of experiment [6] is Mus musculus. Kind of experiment: Anti-diabetic activity in HDF/STZ-induced obesity-diabetes type 2 SKH-2 mouse model assessed as reversal of body weight gain at 56 umol/kg, ip administered twice daily until 53 days measured once per week from 28th to 53 day post STZ challenge. It counts as functional, organism-based.
The subject of experiment [7] is Mus musculus. Kind of experiment: Anti-diabetic activity in HDF/STZ-induced obesity-diabetes type 2 SKH-2 mouse model assessed as reversal of body weight gain at 56 umol/kg, ip administered twice daily until 23 days measured once per week. It counts as functional, organism-based.
Experiment [8] concerns Mus musculus. The experiment is described as follows: Antihyperlipidemic activity in HDF/STZ-induced obesity-diabetes type 2 SKH-2 mouse model assessed as decrease in plasma LDL levels at 56 umol/kg, ip administered twice daily measured on day 22 and day 53 relative to untreated control. It counts as functional. On the set-up: scale not given: the % may be the effect or the level left.

For experiment [9], the system named is Mus musculus. Kind of experiment: Antihypercholesterolemic activity in HDF/STZ-induced obesity-diabetes type 2 SKH-2 mouse model assessed as increase in plasma HDL levels at 56 umol/kg, ip administered twice daily measured on day 22 and day 53 relative to untreated control. Format: functional, organism-based.
The test system of experiment [10] is Mus musculus. The experiment is described as follows: Antihypercholesterolemic activity in HDF/STZ-induced obesity-diabetes type 2 SKH-2 mouse model assessed as decrease in plasma total cholestrol levels at 56 umol/kg, ip administered twice daily measured on day 22 and day 53 relative to untreated control. It counts as functional. On the set-up: scale not given: the % may be the effect or the level left.

Experiment [11] addresses T1, Prostaglandin G/H synthase 1 (Ovis aries). Kind of experiment: Inhibition of ovine COX1 at 20 uM using arachidonic acid as substrate by ELISA.
Experiment [12] relates to Mus musculus. The experiment is described as follows: Anti-diabetic activity in HDF/STZ-induced obesity-diabetes type 2 SKH-2 mouse model assessed as reversal of glucose increase at 56 umol/kg, ip administered twice daily until 53 days measured every 5 to 10 days from day 27 to 53. Format: functional, organism-based.

Each structure is given as a SMILES string. Calls of active or inactive are those of the source. The rule behind the calls is not given here.

Here are results for 17 compounds from ChEMBL document CHEMBL4130357, “Developing potential agents against atherosclerosis: Design, synthesis and pharmacological evaluation of novel dual inhibitors of oxidative stress and Squalene Synthase activity” (Eur J Med Chem, 2017).

Regarding `OC1(c2ccc(/C=C/c3ccccc3)cc2)CN2CCCCC2CO1` (centres undefined), the IC50 in [1] is > 400 µM; in the experiment with Liver, 42 µM. Moreover, the inhibition entry in experiment [2] and in experiment [3] was “inactive” each time.

Take `OC1(c2ccc(-c3ccccc3)cc2)CN2CCCCC2CO1` (centres undefined): the concentration for half-maximal inhibition (IC50) was > 400 µM in experiment [1], 35 µM at Squalene synthase and 350 µM in the experiment on Liver.

Take `CN1CC(O)(c2ccc(/C=C/c3ccccc3)cc2)OC2CCCCC21` (centres undefined): the IC50 in [1] was > 400 µM; in the experiment on Liver, 45 µM. Besides, the inhibition result in experiment [2] and in [3] was “inactive” each time.

Take `Oc1ccc(/C=C/c2cc(O)cc(O)c2)cc1` [RESVERATROL]: the IC50 in experiment [1] is 96 µM; against Squalene synthase it was > 50 µM; with Liver it was 15 µM.

Turning to `CN1CC(O)(c2ccccc2)Sc2ccccc21` (centres undefined), the IC50 amounted to 183 µM in [1], 28 µM against Squalene synthase and 8.2 µM in the experiment with Liver.

Take `CC(C)(Sc1cc(C(C)(C)C)c(O)c(C(C)(C)C)c1)Sc1cc(C(C)(C)C)c(O)c(C(C)(C)C)c1` [PROBUCOL]: the IC50 is 234 µM in experiment [1] and > 1000 µM in the experiment with Liver.

Turning to `CN1CC(O)(c2ccc(-c3ccc(C(F)(F)F)cc3)cc2)Sc2ccccc21` (centres undefined), the IC50 in experiment [1] came to 171 µM; at Squalene synthase, 14 µM; in the experiment with Liver it was 14 µM.

On to `CN1CC(O)(c2ccccc2)Oc2ccccc21` (centres undefined), for which the IC50 is 152 µM in experiment [1], 50 µM against Squalene synthase and 7.6 µM with Liver.

`CSc1ccccc1N(C)CC(=O)c1ccc(-c2ccccc2)cc1`: the results for the IC50 (in experiment [1]; against Squalene synthase; in the experiment with Liver) were > 400 µM, > 50 µM and > 1000 µM, respectively.

In the case of `CN1CC(O)(c2ccc(-c3cc(C(C)(C)C)c(O)c(C(C)(C)C)c3)cc2)OC2CCCCC21` (centres undefined), the IC50 is > 400 µM in experiment [1] and 5.9 µM in the experiment with Liver. Further, the “fold change (FC)” value with Mus musculus [4] is listed as 7.5. Further, the result in the experiment on Mus musculus [5] and in the experiment with Mus musculus [9] was inactive. Also, the outcome in the experiment with Mus musculus [6] and in the experiment on Mus musculus [7] was Active. In addition, the Activity with Mus musculus [8] is 95%; with Mus musculus [10], 70%.

As to `CN1CC(O)(c2ccc(-c3ccccc3)cc2)SC2CCCCC21` (centres undefined), the IC50 in experiment [1] was 271 µM; against Squalene synthase, 16.5 µM; in the experiment with Liver it was 83 µM. In addition, the inhibition in experiment [11] turned out to be 89%.

Regarding `CN1CC(O)(c2ccc(-c3cc(C(C)(C)C)c(O)c(C(C)(C)C)c3)cc2)Sc2ccccc21` (centres undefined), the IC50 in experiment [1] was 34 µM; against Squalene synthase, > 50 µM; in the experiment with Liver, 6.5 µM. Moreover, the inhibition entry in experiment [2] and in [3] was “inactive” in each case. Moreover, in the experiment on Mus musculus [4], the “fold change (FC)” value came out at 3. Moreover, the results for the Activity with Mus musculus [5], in the experiment on Mus musculus [8] and in the experiment with Mus musculus [10] were 55%, 65% and 31%, respectively. Also, the result in the experiment on Mus musculus [7], with Mus musculus [12] and in the experiment with Mus musculus [9] was inactive.

Regarding `CN1CC(O)(c2ccc(-c3ccccc3)cc2)OC2CCCCC21` (centres undefined), the IC50 was > 400 µM in experiment [1] and 450 µM in the experiment with Liver.

`CN1CC(O)(c2ccc(-c3ccccc3)cc2)Oc2ccc(-c3ccccc3)cc21` (centres undefined): the figures for the half-inhibitory concentration (IC50) (in experiment [1]; against Squalene synthase; in the experiment with Liver) were > 400 µM, > 50 µM and 4.9 µM, respectively.

For `CN1CC(O)(c2ccc(-c3ccc(O)cc3)cc2)Sc2ccccc21` (centres undefined), the IC50 is 44 µM in [1], 8.5 µM against Squalene synthase and 15 µM in the experiment with Liver.

As to `CN1CCOC(O)(c2ccc(/C=C/c3ccccc3)cc2)C1` (centres undefined), the results for the IC50 (in experiment [1]; against Squalene synthase; in the experiment on Liver) were > 400 µM, 7 µM and 110 µM, respectively.

`CN1CCOC(O)(c2ccc(-c3ccccc3)cc2)C1` (centres undefined): the IC50 was > 400 µM in experiment [1], 33 µM on Squalene synthase and 300 µM with Liver. For the same compound, the results for the inhibition in [2] and in experiment [3] were 38% and 100%, respectively.
